Source: patent US10538521B2, “Pyrimidine derivative having antimalarial activity” (CARNA BIOSCIENCES, INC., priority 2016, dated 2020)
pIC50: −log10 of the molar value.

Columns and labels:
[1] = test system: FCR3 strain, a drug sensitive strain of Plasmodium falciparum; experiment: In vitro antimalarial assay (p-LDH, Malstat), FCR3 strain; format: cell-based; conditions: P. falciparum FCR3 (drug sensitive), 72 h culture, p-LDH readout, read-out: Antimalarial activity (IC50 value), Strain FCR3
Description: (§1) For the evaluation of the antimalarial activity of the compound of the present invention, K1 strain, a drug resistant strain of Plasmodium falciparum, and FCR3 strain, a drug sensitive strain thereof, which were generous gift from Professor Kiyoshi Kita of the Graduate School of Medicine and Faculty of Medicine, the University of Tokyo, were used to measure the in vitro antimalarial activity of the compound against those Plasmodium species according to the method established by Otoguro et al. (Otoguro, K., Kohana, A., Manabe, C., Ishiyama, A., Ui, H., Shiomi, K., Yamada, H. & Omura, S.: Potent antimalarial activity of polyether antibiotic, X-206. J. Antibiot., 54: 658-663, (2001)).
(§2) The parasites were grown based on a slightly modified method from the original method reported by Trager and Jensen (Trager, W. and Jensen, J.: Human malaria parasites in continuous culture, Science, 193: 673-677, (1976)), and those which were maintained and sub-cultured by the method were used. More specifically, in a culture dish, erythrocytes infected with the protozoa, which had been sub-cultured using a RPMI 1640 medium to which 10% human plasma had been added and fresh human erythrocytes, were diluted (hematocrit value: 2 to 5%, parasitaemia: 0.25 to 1%), and were cultured at 37° C. in a mixed gas of 3% O2-4% CO2-93% N2, and continuously cultured while changing the medium and adding fresh erythrocytes at 2- or 3-day intervals.
(§3) A drug susceptibility test was performed by modifying the method established by Desjardins et al. (Desjardins, R. E., Canfield, C. J., Haynes, D. E. and Chulay, J. D.: Quantitative assessment of antimalarial activity in vitro by a semiautomated microdilution technique. Antimicrob. Agents Chemother., 16: 710-718 (1979)). More specifically, 190 μL of a suspension of protozoa which had been precultured (hematocrit value: 2%, parasitaemia: 0.5 or 1%) and 10 μL of a solution of a test compound (5% DMSO solution) serially diluted so that the final concentration was 12.5 to 0.0001 μM were put in each well of a 96-well plate, and after mixing, the same was cultured for 72 hours in the above mixed gas.
(§4) For the measurement of the growth of protozoa, the method established by Makler (Makler, M. T., Rise, J. M., Williams, J. A., Bancroft, J. E., Piper, R. C., Gibbins, B. L. and Hinrichs, D. J.: Parasite lactate dehydrogenase as an Assay for Plasmodium falciparum drug sensitivity, Am. J. Med. Hyg., 48: 739-741 (1993)) was modified to colorimetrically determine parasite lactate dehydrogenase (p-LDH) using Malstat reagent (Flow Inc., USA).
(§5) More specifically, 72 hours after the culture, the 96-well plate was directly frozen at −20° C. for 18 hours and melted at 37° C. to hemolyze the protozoan-infected erythrocytes and destroy the protozoa to prepare a crude enzyme solution. 100 μL of Malstat reagent and 20 μL of the crude enzyme solution were added to and mixed in each well of another 96-well plate, and after reacting for 15 minutes at room temperature, 20 μL of a nitroblue tetrazolium 2 mg/mL phenazine ethosulfate 0.1 mg/mL=1:1 solution was added to the respective wells, and reaction was performed in dark conditions at room temperature for 2 hours.
(§6) The absorbance of the blue formazan product formed by the reaction was measured at a measurement wavelength of 655 nm by using a microplate reader (Labsystems, Finland) to colorimetrically determine the growth of the protozoa. The 50% growth inhibitory concentration for the protozoa of the compound (IC50 value) was determined based on the concentration-response curve of the compound.

[2] = test system: K1 strain, a drug resistant strain of Plasmodium falciparum; experiment: In vitro antimalarial assay (p-LDH, Malstat), K1 strain; format: cell-based; conditions: P. falciparum K1 (drug resistant), 72 h culture, p-LDH readout, read-out: Antimalarial activity (IC50 value), Strain K1
Description: as §1, §2, §3, §4, §5, §6

## Cc1cc(Nc2nc(Nc3ccn4ccnc4c3)cc(N3CCCCC3)n2)ncc1F [Example 204, N2-(5-fluoro-4-methylpyridin-2-yl)-N4-(imidazo[1,2-a]pyridin-7-yl)-6-(piperidin-1-yl) pyrimidine-2,4-diamine]
[1]
  pIC50: 6.00 to 7.00
[2]
  pIC50: 6.00 to 7.00

## CCOc1cc(Nc2ccn3ccnc3c2)nc(Nc2cc(C)cc(C)n2)n1 [Example 33, N2-(4,6-dimethylpyridin-2-yl)-6-ethoxy-N4-(imidazo[1,2-a]pyridin-7-yl)pyrimidine-2,4-diamine]
[1]
  pIC50: > 7.00
[2]
  pIC50: 6.00 to 7.00

## COc1ccnc(Nc2nc(Nc3ccn4ccnc4c3)cc(N3CCCC3)n2)c1 [Example 128, N4-(imidazo[1,2-a]pyridin-7-yl)-N2-(4-methoxypyridin-2-yl)-6-(pyrrolidin-1-yl)pyrimidine-2,4-diamine]
[1]
  pIC50: > 7.00
[2]
  pIC50: > 7.00

## CCOc1cc(Nc2ccn3ccnc3c2)nc(Nc2ccc(C)cn2)n1 [Example 38, 6-ethoxy-N4-(imidazo[1,2-a]pyridin-7-yl)-N2-(5-methylpyridin-2-yl)pyrimidine-2,4-diamine]
[1]
  pIC50: 6.00 to 7.00
[2]
  pIC50: 6.00 to 7.00

## CN(C)CCOc1ccc(Nc2nc(Nc3ccn4ccnc4c3)cc(N3CCOCC3)n2)cn1 [Example 61, N2-(6-(2-(dimethylamino)ethoxy)pyridin-3-yl)-N4-(imidazo[1,2-a]pyridin-7-yl)-6-morpholino-pyrimidine-2,4-diamine]
[1]
  pIC50: 6.00 to 7.00
[2]
  pIC50: 5.00 to 6.00

## Cc1cc(C)nc(Nc2nc(Nc3ccn4ccnc4c3)cc(N3CCN(C)[C@@H](C)C3)n2)c1 [Example 45, (S)-6-(3,4-dimethylpiperazin-1-yl)-N2-(4,6-dimethylpyridin-2-yl)-N4-(imidazo[1,2-a]pyridin-7-yl)pyrimidine-2,4-diamine]
[1]
  pIC50: > 7.00
[2]
  pIC50: 5.00 to 6.00

## CC(C)(C)c1cccc(Nc2nc(Nc3ccn4ccnc4c3)cc(N3CCCCC3)n2)n1 [Example 122, N2-(6-(tert-butyl)pyridin-2-yl)-N4-(imidazo[1,2-a]pyridin-7-yl)-6-(piperidin-1-yl)pyrimidine-2,4-diamine]
[1]
  pIC50: 6.00 to 7.00
[2]
  pIC50: 6.00 to 7.00

## CCCCc1cc(OC)cc(Nc2nc(Nc3ccn4ccnc4c3)cc(N3CCCCC3)n2)n1 [Example 197, N2-(6-butyl-4-methoxypyridin-2-yl)-N4-(imidazo[1,2-a]pyridin-7-yl)-6-(piperidin-1-yl) pyrimidine-2,4-diamine]
[1]
  pIC50: 6.00 to 7.00
[2]
  pIC50: 6.00 to 7.00

## Cc1cc(C)nc(Nc2nc(Nc3ccn4ccnc4c3)cc(N3C[C@H]4CCC[C@H]4C3)n2)c1 [Example 176, N2-(4,6-dimethylpyridin-2-yl)-6-[(3aR,6aS)-hexahydrocyclopenta [c]pyrrol-2(1H)-yl]-N4-(imidazo[1,2-a]pyridin-7-yl) pyrimidine-2,4-diamine]
[1]
  pIC50: > 7.00
[2]
  pIC50: > 7.00

## Cc1cccc(Nc2nc(Nc3ccn4ccnc4c3)cc(N3CCN(C)CC3)n2)n1 [Example 39, N4-(imidazo[1,2-a]pyridin-7-yl)-6-(4-methylpiperazin-1-yl)-N2-(6-methylpyridin-2-yl)pyrimidine-2,4-diamine]
[1]
  pIC50: 5.00 to 6.00
[2]
  pIC50: 5.00 to 6.00

## CC(C)(C)Cc1cccc(Nc2nc(Nc3ccn4ccnc4c3)cc(N3CCCC3)n2)n1 [Example 162, N4-(imidazo[1,2-a]pyridin-7-yl)-N2-(6-neopentylpyridin-2-yl)-6-(pyrrolidin-1-yl)pyrimidine-2,4-diamine]
[1]
  pIC50: > 7.00
[2]
  pIC50: 6.00 to 7.00

## COc1ncccc1Nc1nc(Nc2ccn3ccnc3c2)cc(N2CCOCC2)n1 [Example 5, N4-(Imidazo[1,2-a]pyridin-7-yl)-N2-(2-methoxypyridin-3-yl)-6-morpholinopyrimidine-2,4-diamine]
[1]
  pIC50: 5.00 to 6.00
[2]
  pIC50: 5.00 to 6.00

## CC(C)(C)Oc1ccc(Nc2nc(Nc3ccn4ccnc4c3)cc(N3CCOCC3)n2)cn1 [Example 63, N2-(6-(tert-butoxy)pyridin-3-yl)-N4-(imidazo[1,2-a]pyridin-7-yl)-6-morpholinopyrimidine-2,4-diamine]
[1]
  pIC50: 6.00 to 7.00
[2]
  pIC50: 6.00 to 7.00

## CCc1ccnc(Nc2nc(Nc3ccn4ccnc4c3)cc(N3CCC3)n2)c1 [Example 118, 6-(azetidin-1-yl)-N2-(4-ethylpyridin-2-yl)-N4-(imidazo[1,2-a]pyridin-7-yl)pyrimidine-2,4-diamine]
[1]
  pIC50: > 7.00
[2]
  pIC50: > 7.00

## CCCOc1ccc(Nc2nc(Nc3ccn4ccnc4c3)cc(N3CCOCC3)n2)cn1 [Example 69, N4-(imidazo[1,2-a]pyridin-7-yl)-6-morpholino-N2-(6-propoxy-pyridin-3-yl)pyrimidine-2,4-diamine]
[1]
  pIC50: > 7.00
[2]
  pIC50: 6.00 to 7.00

## CC(C)COc1ccc(Nc2nc(Nc3ccn4ccnc4c3)cc(N3CCOCC3)n2)cn1 [Example 64, N4-(imidazo[1,2-a]pyridin-7-yl)-N2-(6-isobutoxypyridin-3-yl)-6-morpholinopyrimidine-2,4-diamine]
[1]
  pIC50: > 7.00
[2]
  pIC50: 6.00 to 7.00

## Fc1ccnc(Nc2nc(Nc3ccn4ccnc4c3)cc(N3CCOCC3)n2)c1 [Example 21, N2-(4-Fluoropyridin-2-yl)-N4-(imidazo[1,2-a]pyridin-7-yl)-6-morpholinopyrimidine-2,4-diamine]
[1]
  pIC50: 6.00 to 7.00
[2]
  pIC50: 6.00 to 7.00

## CC(C)(C)OCCOc1cccc(Nc2nc(Nc3ccn4ccnc4c3)cc(N3CCCC3)n2)n1 [Example 156, N2-{6-[2-(tert-butoxy)ethoxy]pyridin-2-yl}-N4-(imidazo[1,2-a]pyridin-7-yl)-6-(pyrrolidin-1-yl)pyrimidine-2,4-diamine]
[1]
  pIC50: > 7.00
[2]
  pIC50: 6.00 to 7.00

## Cc1cc(C)nc(Nc2nc(Nc3ccn4ccnc4c3)cc(N3CC[C@@H](F)C3)n2)c1 [Example 186, (R)-N2-(4,6-dimethylpyridin-2-yl)-6-(3-fluoropyrrolidin-1-yl)-N4-(imidazo[1,2-a]pyridin-7-yl) pyrimidine-2,4-diamine]
[1]
  pIC50: > 7.00
[2]
  pIC50: > 7.00

## Cc1cc(C)nc(Nc2nc(Nc3ccn4ccnc4c3)cc(N3CCC(N4CCCC4)C3)n2)c1 (centres unmarked) [Example 148, 6-([1,3′-bipyrrolidin]-1′-yl)-N2-(4,6-dimethylpyridin-2-yl)-N4-(imidazo[1,2-a]pyridin-7-yl)pyrimidine-2,4-diamine]
[1]
  pIC50: > 7.00
[2]
  pIC50: > 7.00

## CCc1ccnc(Nc2nc(Nc3ccn4ccnc4c3)cc(N3CCC(O)CC3)n2)c1 [Example 111, 1-(2-((4-ethylpyridin-2-yl)amino)-6-(imidazo[1,2-a]pyridin-7-ylamino)pyrimidin-4-yl)piperidin-4-ol]
[1]
  pIC50: > 7.00
[2]
  pIC50: > 7.00

## CCc1ccnc(Nc2nc(Nc3ccn4ccnc4c3)cc(N3CCN[C@H](C)C3)n2)c1 [Example 102, (R)-N2-(4-ethylpyridin-2-yl)-N4-(imidazo[1,2-a]pyridin-7-yl)-6-(3-methylpiperazin-1-yl)pyrimidine-2,4-diamine]
[1]
  pIC50: 6.00 to 7.00
[2]
  pIC50: 6.00 to 7.00

## Cc1cc(C)nc(Nc2nc(Nc3ccn4ccnc4c3)cc(N3CCC(N(C)C)CC3)n2)c1 [Example 134, 6-(4-(dimethylamino)piperidin-1-yl)-N2-(4,6-dimethylpyridin-2-yl)-N4-(imidazo[1,2-a]pyridin-7-yl)pyrimidine-2,4-diamine]
[1]
  pIC50: > 7.00
[2]
  pIC50: > 7.00

## Cc1ccc(Nc2nc(N)cc(Nc3ccn4ccnc4c3)n2)nc1 [Example 44]
[1]
  pIC50: > 7.00
[2]
  pIC50: > 7.00

## CCCCc1cccc(Nc2nc(Nc3ccn4ccnc4c3)cc(N3CCOCC3)n2)n1 [Example 109, N2-(6-butylpyridin-2-yl)-N4-(imidazo[1,2-a]pyridin-7-yl)-6-morpholinopyrimidine-2,4-diamine]
[1]
  pIC50: > 7.00
[2]
  pIC50: > 7.00
